# Test system: Sprague-Dawley Rats
# Test: Blood pressure change in Sprague-Dawley rats
# Conditions: conscious rat, Compound I-15 (prodrug salt of I-2) dosed orally in water at 10 mg/kg, 160 minutes post-dose
# Experimental: Male rats (250-350 g body weight, supplied by Harlan Laboratories) were anesthetized with ketamine/xylazine and a heparinized saline fluid filled catheter implanted into the right femoral artery. The catheter was exteriorized between the scapula, capped, and the animal allowed to recover for at least 7 days post surgery prior to any compound testing. Prior to testing animals were maintained on normal diet, with free access to drinking water, under a 12 hour light-dark cycle.
# On the day of experimentation, under inhaled isoflurane anesthesia, the catheter was uncapped and connected to a tether (Instech Labs) and pressure transducer (Harvard Apparatus). Blood pressure and heart rate were subsequently captured and analyzed with a dedicated data capture system (PowerLab, ADInstruments). Data sampling rates were set at 1 cycle per second. Once connected, each rat was allowed to recover from anesthesia and baseline blood pressure and heart rate levels were established in these conscious, freely-moving animals. Once baseline was established either vehicle (0.5% methylcellulose or 100% PEG400) or test article was administered orally (PO, 10 mg/kg) and the effects on blood pressure and heart rate monitored for up to 24 hours.
row,Structure (SMILES),decrease of MAP (mean arterial pressure) below baseline
1,"OC(CNc1nc(-c2cn3ccnc3c(Cc3ccccc3F)n2)ncc1F)(C(F)(F)F)C(F)(F)F [Compound I-2, 1,1,1,3,3,3-hexafluoro-2-(((5-fluoro-2-(8-(2-fluorobenzyl)imidazo[1,2-a]pyrazin-6-yl)pyrimidin-4-yl)amino)methyl)propan-2-ol]",about 10 mmHg

# Same assay, conditions: rat, dosed orally in water at 10 mg/kg, one hour post-dose
row,Structure (SMILES),dosed Compound I-15 converted to Compound I-2 [%]
1,O=P([O-])([O-])OC(CNc1nc(-c2cn3ccnc3c(Cc3ccccc3F)n2)ncc1F)(C(F)(F)F)C(F)(F)F.[Na+].[Na+] [Compound I-15],97.5

# Molecular target: T1, sGC enzyme (Homo sapiens, UniProt Q02153)
# T1 construct: incorporated into these cells detect cGMP formed by the compounds stimulating the sGC enzyme; host or cells: HEK293 cells stably expressing the GloSensor 40F cGMP biosensor
# T1 sequence (Q02153 1-619): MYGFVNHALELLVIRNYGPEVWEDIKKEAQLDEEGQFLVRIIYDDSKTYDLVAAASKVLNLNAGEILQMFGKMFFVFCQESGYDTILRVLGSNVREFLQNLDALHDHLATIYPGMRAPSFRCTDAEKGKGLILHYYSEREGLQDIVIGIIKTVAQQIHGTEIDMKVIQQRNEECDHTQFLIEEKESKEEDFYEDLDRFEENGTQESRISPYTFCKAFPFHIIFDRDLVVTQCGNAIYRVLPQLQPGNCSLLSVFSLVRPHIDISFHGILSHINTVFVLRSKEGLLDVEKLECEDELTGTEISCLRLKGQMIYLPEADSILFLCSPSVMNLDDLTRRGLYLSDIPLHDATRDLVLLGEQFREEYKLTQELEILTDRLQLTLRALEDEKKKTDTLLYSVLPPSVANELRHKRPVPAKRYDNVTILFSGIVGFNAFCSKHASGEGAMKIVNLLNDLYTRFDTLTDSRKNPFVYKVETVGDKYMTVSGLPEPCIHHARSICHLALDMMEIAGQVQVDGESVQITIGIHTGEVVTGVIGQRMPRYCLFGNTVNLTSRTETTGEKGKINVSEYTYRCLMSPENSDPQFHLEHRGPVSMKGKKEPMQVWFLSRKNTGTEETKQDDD
# T1 sequence (Q02108 1-690 partner): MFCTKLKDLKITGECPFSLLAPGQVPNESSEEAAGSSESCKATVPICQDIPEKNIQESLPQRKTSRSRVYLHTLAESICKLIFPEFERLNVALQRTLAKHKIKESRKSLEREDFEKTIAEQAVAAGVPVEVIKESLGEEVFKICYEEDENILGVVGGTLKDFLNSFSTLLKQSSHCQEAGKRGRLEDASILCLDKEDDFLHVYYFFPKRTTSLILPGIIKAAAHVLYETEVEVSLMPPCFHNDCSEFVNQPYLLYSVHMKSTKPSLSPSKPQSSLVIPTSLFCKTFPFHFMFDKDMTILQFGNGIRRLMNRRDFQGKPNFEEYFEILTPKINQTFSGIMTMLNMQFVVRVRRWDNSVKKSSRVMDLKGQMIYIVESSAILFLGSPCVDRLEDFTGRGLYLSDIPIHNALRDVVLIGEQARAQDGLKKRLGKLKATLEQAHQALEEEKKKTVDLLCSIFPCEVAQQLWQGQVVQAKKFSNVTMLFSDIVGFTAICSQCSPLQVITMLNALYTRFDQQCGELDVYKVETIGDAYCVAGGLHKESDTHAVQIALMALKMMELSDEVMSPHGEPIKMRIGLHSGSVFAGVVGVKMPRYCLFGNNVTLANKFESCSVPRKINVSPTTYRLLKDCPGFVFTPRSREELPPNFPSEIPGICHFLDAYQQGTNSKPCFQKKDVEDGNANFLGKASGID
# Test: cGMP GloSensor cell-based assay, 384-well format
# Conditions: HEK293 cells expressing GloSensor 40F cGMP; 10 μM DETA-NONOate; 55 min incubation; normalized to high control Compound Y (30 μM); read-out: Glo-sGC Absolute EC50
# Experimental: Human embryonic kidney cells (HEK293) cells expressing GloSensor™ 40F cGMP (Part No: CS182801, Promega) were used to evaluate the activity of test compounds. The luminescent biosensors (engineered luciferase) that were incorporated into these cells detect cGMP formed by the compounds stimulating the sGC enzyme and emit luminescence.
# cGMP GoSensor cells were maintained in Dulbecco's Modification of Eagle's Medium (DMEM) supplemented with fetal bovine serum (FBS, 10% final) and hygromycine (200 ug/ml). The day before assay, cells were plated in DMEM with 10% FBS in a 50 μL volume at a density of 1.5×10^4 cells/well in a poly-D-lysine coated 384-well flat white-bottom plate (Corning Cat No 35661). Cells were incubated overnight at 37° C. in a humidified chamber with 5% CO2. The next day, medium was removed and cells were replaced with 40 ul/well of GoSensor™, 2 mM (Promega Cat No E1291). Cells were treated for 90 minutes at 25° C. to allow the substrate to equilibrate in the cells. Test compounds and Diethylenetriamine NONOate (DETA-NONOate) was diluted to 3 mM (20×) in serum-free CO2 independent medium and serially diluted at 4× dilutions to create 5× dose curve from which 10 ul was added to the wells (x μM concentration for test compound solution and 10 μM concentration for DETA-NONOate solution; wherein x is one of the following final concentrations).
# For the kinetics studies, luminescence was measured right away for 0.2 sec per well with Envision (Perkin Elmer). For endpoint SAR screening, data were collected after 55 min incubation at room temperature.
# Data were normalized to a high control using the following equation: 100*(Sample-Low Control)/(High Control-Low Control), where the low control is the average of sixteen DMSO (1%) control datapoints, and the high control is the average of sixteen Compound Y (30 μM) datapoints, wherein Compound Y is depicted below. Data were fit using a 4-parameter fit (log(agonist) vs. response—variable slope) using GraphPad Prism Software v.5. n=2 for all compounds. The Absolute EC50 was interpolated from the curve fit and is defined as the concentration at which a given compound elicits 50% of the high control response after data normalization as indicated above. Compounds failing to elicit a minimum response of 50% are reported as >30 μM or ND (not determined). For compounds run in duplicate or n higher than 2, the result herein given is the geometric mean of the several results obtained.
row,Structure (SMILES),EC50 [nM]
1,OC(CNc1nc(-c2cn3ccnc3c(Cc3ccccc3F)n2)ncc1Cl)C(F)(F)F (racemic) [Compound I-8],100 to 1000
2,"OC(CNc1nc(-c2cn3ccnc3c(Cc3ccccc3F)n2)ncc1F)(C(F)(F)F)C(F)(F)F [Compound I-2, 1,1,1,3,3,3-hexafluoro-2-(((5-fluoro-2-(8-(2-fluorobenzyl)imidazo[1,2-a]pyrazin-6-yl)pyrimidin-4-yl)amino)methyl)propan-2-ol]",≤ 100
3,NC(=O)[C@](O)(CNc1nc(-c2cn3ccnc3c(Cc3ccccc3F)n2)ncc1F)C(F)(F)F [Compound I-3],≤ 100
4,NC(=O)[C@](O)(CNc1nc(-c2cn3ccnc3c(Cc3cc(F)ccc3F)n2)ncc1F)C(F)(F)F [Compound I-5],≤ 100
5,OC(CNc1nc(-c2cn3ncnc3c(Cc3ccccc3F)n2)ncc1F)(C(F)(F)F)C(F)(F)F [Compound I-6],100 to 1000
6,CC(C)(O)CNc1nc(-c2cn3c(Cl)cnc3c(Cc3ccccc3F)n2)ncc1F [Compound I-7],100 to 1000
7,OCCNc1ccnc(-c2cn3ccnc3c(Cc3ccccc3F)n2)n1 [Compound I-9],100 to 1000
8,O=P([O-])([O-])OC(CNc1nc(-c2cn3ccnc3c(Cc3ccccc3F)n2)ncc1F)(C(F)(F)F)C(F)(F)F.[Na+].[Na+] [Compound I-15],1000 to 30000

# The remaining lines, values ahead:
row,EC50 [nM],Structure (SMILES)
1,1000 to 30000,COc1cnc(-c2cn3ncnc3c(Cc3ccccc3F)n2)nc1NCC(O)C(F)(F)F (racemic) [Compound I-11]
2,1000 to 30000,Cc1c(F)cc(Cc2nc(-c3ncc(Cl)c(NCC(O)(C(F)(F)F)C(F)(F)F)n3)cn3ccnc23)cc1F [Compound I-10]
3,100 to 1000,N#Cc1cnc(-c2cn3ncnc3c(Cc3ccccc3F)n2)nc1NCC(O)(C(F)(F)F)C(F)(F)F [Compound I-12]
4,100 to 1000,NC(=O)[C@](O)(CNc1nc(-c2cn3ncnc3c(Cc3ccccc3F)n2)ncc1F)C(F)(F)F [Compound I-16]

# From patent US11897887B2, “sGC stimulators” (Tisento Therapeutics Inc., priority 2017, dated 2024)
